Source: ChEMBL document CHEMBL3885881, “DrugMatrix”

Species: Rattus norvegicus
Type: toxicity, organism-based, Sprague-Dawley
Conditions: in vivo, ip, route intraperitoneal, vehicle 100 % SALINE; for ABSOLUTE EOSINOPHIL / ABSOLUTE LYMPHOCYTE / ABSOLUTE MONOCYTE / ABSOLUTE SEGMENTED NEUTROPHIL / BASOPHIL / EOSINOPHIL / ERYTHROCYTE COUNT / HEMATOCRIT / HEMOGLOBIN / LEUKOCYTE COUNT / LYMPHOCYTE / MEAN CORPUSCULAR HEMOGLOBIN / MEAN CORPUSCULAR HEMOGLOBIN CONCENTRATION / MEAN CORPUSCULAR VOLUME / MONOCYTE / NEUTROPHIL / NUCLEATED RED BLOOD CELLS / PLATELET COUNT: tissue Blood; for ALANINE AMINOTRANSFERASE / ALBUMIN / ALKALINE PHOSPHATASE / ASPARTATE AMINOTRANSFERASE / BLOOD UREA NITROGEN / CARBON DIOXIDE / CHLORIDE / CHOLESTEROL / CREATINE PHOSPHOKINASE / CREATININE / GLUCOSE / LACTATE DEHYDROGENASE / LIPASE / PHOSPHORUS / POTASSIUM / SODIUM / TOTAL BILIRUBIN / TOTAL PROTEIN / URIC ACID: tissue Plasma
[1] = 0 mg/kg, 6 h, vehicle control, dose level Control, time 0.25 day
[2] = 0 mg/kg, 24 h, vehicle control, dose level Control, time 1 day
[3] = 16 mg/kg, 6 h, dose level Low, time 0.25 day

Description: DrugMatrix - Regimen: Single

C=CCO [ALLYL ALCOHOL]
ABSOLUTE EOSINOPHIL [1]: 63 CELLS/uL | ABSOLUTE LYMPHOCYTE [1]: 12886.67 CELLS/uL | ABSOLUTE MONOCYTE [1]: 302.5 CELLS/uL | ABSOLUTE SEGMENTED NEUTROPHIL [1]: 2997.83 CELLS/uL | BASOPHIL [1]: 0% | EOSINOPHIL [1]: 0.33% | ERYTHROCYTE COUNT [1]: 5.45 x10E6/uL | HEMATOCRIT [1]: 34.93% | HEMOGLOBIN [1]: 13.88 G/DL | LEUKOCYTE COUNT [1]: 16.25 x10E3/uL | LYMPHOCYTE [1]: 79.17% | MEAN CORPUSCULAR HEMOGLOBIN [1]: 25.48 pg | MEAN CORPUSCULAR HEMOGLOBIN CONCENTRATION [1]: 39.77 G/DL | MEAN CORPUSCULAR VOLUME [1]: 64.13 fL | MONOCYTE [1]: 1.83% | NEUTROPHIL [1]: 18.67% | NUCLEATED RED BLOOD CELLS [1]: 0 /100WBC | PLATELET COUNT [1]: 1184.67 x10E3/uL | ALANINE AMINOTRANSFERASE [1]: 35 u/L | ALBUMIN [1]: 4.25 G/DL | ALKALINE PHOSPHATASE [1]: 281.83 u/L | ASPARTATE AMINOTRANSFERASE [1]: 79.5 u/L | BLOOD UREA NITROGEN [1]: 11.67 mg/dL | CARBON DIOXIDE [1]: 27 mmol/L | CHLORIDE [1]: 100.33 MEQ/L | CHOLESTEROL [1]: 60.67 mg/dL | CREATINE PHOSPHOKINASE [1]: 275.5 u/L | CREATININE [1]: 0.13 mg/dL | GLUCOSE [1]: 162.5 mg/dL | LACTATE DEHYDROGENASE [1]: 258.83 u/L | LIPASE [1]: 9.33 u/L | PHOSPHORUS [1]: 11.42 mg/dL | POTASSIUM [1]: 6.16 MEQ/L | SODIUM [1]: 145.08 MEQ/L | TOTAL BILIRUBIN [1]: 0.18 mg/dL | TOTAL PROTEIN [1]: 5.73 G/DL | URIC ACID [1]: 1.58 mg/dL | ABSOLUTE EOSINOPHIL [2]: 18.5 CELLS/uL | ABSOLUTE LYMPHOCYTE [2]: 12859.83 CELLS/uL | ABSOLUTE MONOCYTE [2]: 190.83 CELLS/uL | ABSOLUTE SEGMENTED NEUTROPHIL [2]: 1230.83 CELLS/uL | BASOPHIL [2]: 0% | EOSINOPHIL [2]: 0.17% | ERYTHROCYTE COUNT [2]: 5.2 x10E6/uL | HEMATOCRIT [2]: 33.25% | HEMOGLOBIN [2]: 13.37 G/DL | LEUKOCYTE COUNT [2]: 14.3 x10E3/uL | LYMPHOCYTE [2]: 89.83% | MEAN CORPUSCULAR HEMOGLOBIN [2]: 25.73 pg | MEAN CORPUSCULAR HEMOGLOBIN CONCENTRATION [2]: 40.25 G/DL | MEAN CORPUSCULAR VOLUME [2]: 64 fL | MONOCYTE [2]: 1.33% | NEUTROPHIL [2]: 8.67% | NUCLEATED RED BLOOD CELLS [2]: 0 /100WBC | PLATELET COUNT [2]: 1075.5 x10E3/uL | ALANINE AMINOTRANSFERASE [2]: 54.17 u/L | ALBUMIN [2]: 4.25 G/DL | ALKALINE PHOSPHATASE [2]: 280.67 u/L | ASPARTATE AMINOTRANSFERASE [2]: 84.67 u/L | BLOOD UREA NITROGEN [2]: 13.33 mg/dL | CARBON DIOXIDE [2]: 26.33 mmol/L | CHLORIDE [2]: 99.67 MEQ/L | CHOLESTEROL [2]: 72 mg/dL | CREATINE PHOSPHOKINASE [2]: 620 u/L | CREATININE [2]: 0.17 mg/dL | GLUCOSE [2]: 169.17 mg/dL | LACTATE DEHYDROGENASE [2]: 189.17 u/L | LIPASE [2]: 9.67 u/L | PHOSPHORUS [2]: 10.57 mg/dL | POTASSIUM [2]: 5.16 MEQ/L | SODIUM [2]: 142.2 MEQ/L | TOTAL BILIRUBIN [2]: 0.18 mg/dL | TOTAL PROTEIN [2]: 5.78 G/DL | URIC ACID [2]: 1.25 mg/dL | ABSOLUTE EOSINOPHIL [3]: 48.67 CELLS/uL | ABSOLUTE LYMPHOCYTE [3]: 11033.33 CELLS/uL | ABSOLUTE MONOCYTE [3]: 230.5 CELLS/uL | ABSOLUTE SEGMENTED NEUTROPHIL [3]: 2270.83 CELLS/uL | BASOPHIL [3]: 0% | EOSINOPHIL [3]: 0.33% | ERYTHROCYTE COUNT [3]: 5.38 x10E6/uL | HEMATOCRIT [3]: 34.4% | HEMOGLOBIN [3]: 13.45 G/DL | LEUKOCYTE COUNT [3]: 13.58 x10E3/uL | LYMPHOCYTE [3]: 81.17% | MEAN CORPUSCULAR HEMOGLOBIN [3]: 25.12 pg | MEAN CORPUSCULAR HEMOGLOBIN CONCENTRATION [3]: 39.12 G/DL | MEAN CORPUSCULAR VOLUME [3]: 64.18 fL | MONOCYTE [3]: 1.67% | NEUTROPHIL [3]: 16.83% | NUCLEATED RED BLOOD CELLS [3]: 0 /100WBC | PLATELET COUNT [3]: 997.5 x10E3/uL | ALANINE AMINOTRANSFERASE [3]: 66.83 u/L | ALBUMIN [3]: 4.27 G/DL | ALKALINE PHOSPHATASE [3]: 267.67 u/L | ASPARTATE AMINOTRANSFERASE [3]: 90 u/L | BLOOD UREA NITROGEN [3]: 9.33 mg/dL | CARBON DIOXIDE [3]: 28.5 mmol/L | CHLORIDE [3]: 100.17 MEQ/L | CHOLESTEROL [3]: 68 mg/dL | CREATINE PHOSPHOKINASE [3]: 295 u/L | CREATININE [3]: 0.14 mg/dL | GLUCOSE [3]: 153.5 mg/dL | LACTATE DEHYDROGENASE [3]: 198.83 u/L | LIPASE [3]: 11.83 u/L | PHOSPHORUS [3]: 10.27 mg/dL | POTASSIUM [3]: 5.27 MEQ/L | SODIUM [3]: 144.05 MEQ/L | TOTAL BILIRUBIN [3]: 0.1 mg/dL | TOTAL PROTEIN [3]: 5.6 G/DL | URIC ACID [3]: 1.15 mg/dL
